According to patent publication US20240140957A1, “BRIDGED COMPOUNDS AS KRAS G12D INHIBITOR AND DEGRADER AND THE USE THEREOF” (BeiGene Switzerland GmbH, priority 2021, published 2024):

Legend:
GDP-loaded KRAS G12D = GDP-loaded KRAS G12D (Homo sapiens, UniProt P01116, G12D); experiment: KRAS G12D Probe Displacement Assay; format: binding; settings: KRAS G12D 0.5 nM, biotinylated probe 2 4 nM; read-out: KRAS G12D Probe Displacement Assay IC50
[1] = test system: pERK1/2 (THR202/TYR204) in AsPC-1 cells; experiment: pERK Assay (HTRF) in AsPC-1 cells; format: cell-based; settings: Homo sapiens, ASPC1, 2 h compound treatment
Method: AsPC-1 cell line was used in this study. […] 30000 cells per well were seeded into a 96-well plate and incubated overnight. […] After 2 h compound treatment, cells were lysed, and the pERK1/2 (THR202/TYR204) level in the cell lysates was detected by HTRF kit (Cisbio). In brief, a total of 16 μL of cell lysate from each well of a 96-well plate was transferred to a 384-well white assay plate. Lysate from each well was incubated with 2 μL of Eu3+-cryptate (donor) labeled anti-phospho-ERK1/2 and 2 μL of D2 (acceptor) labeled anti-phospho-ERK1/2 antibodies (Cisbio) overnight in dark at room temperature. When donor and acceptor are in close proximity, excitation of the donor with laser triggers a Fluorescence Resonance Energy Transfer (FRET) towards the acceptor, which in turn fluoresces at 655 nm wavelength. FRET signals were measured using a PHERAstar FSX reader (BMG Labtech).

GDP-loaded WT KRAS = GDP-loaded WT KRAS (Homo sapiens, UniProt P01116); experiment: KRAS WT Probe Displacement Assay; format: binding; settings: WT KRAS 3 nM, biotinylated probe 1 60 nM; read-out: KRAS WT Probe Displacement Assay IC50
GDP-loaded WT KRAS, sequence (P01116 1-188 isoform P01116-2): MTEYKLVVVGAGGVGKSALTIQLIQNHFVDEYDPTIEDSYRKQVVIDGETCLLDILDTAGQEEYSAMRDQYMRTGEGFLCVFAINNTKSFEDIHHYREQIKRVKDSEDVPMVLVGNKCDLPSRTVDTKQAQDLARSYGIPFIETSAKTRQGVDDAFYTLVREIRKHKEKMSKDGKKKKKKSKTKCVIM
WT KRAS:SOS1 = WT KRAS:SOS1 (Homo sapiens, UniProt P01116); experiment: KRAS WT:SOS1 GDP TR-FRET assay; format: binding; settings: GST-WT KRAS 37.5 nM, GDP 10 μM, His-SOS1 18 nM
WT KRAS:SOS1, sequence (P01116 1-188 isoform P01116-2): as above
Method: (§1) KRAS:SOS1 GDP TR-FRET Assay
(§2) This assay was used to identify compounds which competitively interact with the binding of KRAS protein to SOS1 in the presence of GDP. […] All protein and reaction solutions were prepared in assay buffer containing DPBS pH7.5, 0.1% BSA, and 0.05% Tween 20. Purified GST-tagged WT KRAS or KRAS G12D protein (37.5 nM final assay concentration) and GDP (Sigma, 10 μM final assay concentration) mixture, a serially diluted compound (top final concentration is 50 μM or 10 uM, 3-fold serially diluted, 10 points) and His-tagged SOS1 protein (18 nM final assay concentration) were added into the assay plates (384 well microplate, black, Corning) sequentially. Plates are incubated at 24° C. for 1 hr. Following the incubation, Mab Anti-GST-Tb cryptate (Cisbio) and […] (Cisbio) were added and further incubated at 24° C. for another 1 hr. The TR-FRET signals (ex337 nm, em665 nm/620 nm) were read on BMG PHERAstar FSX instrument. The inhibition percentage of KRAS protein binding with SOS1 in presence of increasing concentrations of compounds was calculated based on the ratio of fluorescence at 665 nm to that at 620 nm. The IC50 value of each compound was calculated from fitting the data to the four-parameter logistic model by Dotmatics.

KRAS G12D:SOS1 = KRAS G12D:SOS1 (Homo sapiens, UniProt P01116, G12D); experiment: KRAS G12D:SOS1 GDP TR-FRET assay; format: binding; settings: GST-KRAS G12D 37.5 nM, GDP 10 μM, His-SOS1 18 nM
KRAS G12D:SOS1, sequence (P01116 1-188 isoform P01116-2 G12D): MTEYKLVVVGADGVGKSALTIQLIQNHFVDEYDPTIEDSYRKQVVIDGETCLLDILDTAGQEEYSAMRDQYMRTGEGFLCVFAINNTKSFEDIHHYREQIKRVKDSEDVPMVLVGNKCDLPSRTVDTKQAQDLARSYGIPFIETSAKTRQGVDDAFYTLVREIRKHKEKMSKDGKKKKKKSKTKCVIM
Method: as §1, §2

GDP-loaded KRAS G12D, sequence (P01116 1-188 isoform P01116-2 G12D): as above

| Compound | IC50 (GDP-loaded KRAS G12D) [nM] | IC50 [1] [nM] | IC50 (GDP-loaded WT KRAS) [nM] | IC50 (WT KRAS:SOS1) [nM] | IC50 (KRAS G12D:SOS1) [nM] |
| --- | --- | --- | --- | --- | --- |
| Cc1cc(N)nc(-c2c(Cl)cc3c(N4C5CNCC4COC5)nc(OC[C@@]45CCCN4C[C@H](F)C5)nc3c2F)c1C(F)(F)F (stereo in doubt) [Example E88, 6-(4-(3-oxa-7,9-diazabicyclo[3.3.1]nonan-9-yl)-6-chloro-8-fluoro-2-((2-fluorotetrahydro-1H-pyrrolizin-7a(5H)-yl)methoxy)quinazolin-7-yl)-4-methyl-5-(trifluoromethyl)pyridin-2-amine] | 1.7 | 172 | 49 |  |  |
| C[C@@H](CN1CCC1)Oc1nc(N2CC3CCC(C2)N3)c2cc(Cl)c(-c3ccc(F)c4sc(N)nc34)c(F)c2n1 [Example E23, 4-(2-(((S)-1-(azetidin-1-yl)propan-2-yl)oxy)-4-(3,8-diazabicyclo[3.2.1]octan-3-yl)-6-chloro-8-fluoroquinazolin-7-yl)-7-fluorobenzo[d]thiazol-2-amine] |  | 5220 |  | 146 | 3.9 |
| C[C@@H](CN1CCC(F)C1)Oc1nc(N2CC3CCC(C2)N3)c2cc(Cl)c(-c3ccc(F)c4sc(N)nc34)c(F)c2n1 (stereo partly drawn) [Example E24, 4-(4-(3,8-diazabicyclo[3.2.1]octan-3-yl)-6-chloro-8-fluoro-2-(((2S)-1-(3-fluoropyrrolidin-1-yl)propan-2-yl)oxy)quinazolin-7-yl)-7-fluorobenzo[d]thiazol-2-amine] |  | 1270 |  | 210 | 2.8 |
| C[C@@H](CN1CCC(F)CC1)Oc1nc(N2CC3CCC(C2)N3)c2cc(Cl)c(-c3ccc(F)c4sc(N)nc34)c(F)c2n1 [Example E25] |  | 860 |  | 88 | 2.2 |
| C[C@@H](CN1CCC(C#N)CC1)Oc1nc(N2CC3CCC(C2)N3)c2cc(Cl)c(-c3ccc(F)c4sc(N)nc34)c(F)c2n1 [Example E26, 1-((2S)-2-((7-(2-amino-7-fluorobenzo[d]thiazol-4-yl)-4-(3,8-diazabicyclo[3.2.1]octan-3-yl)-6-chloro-8-fluoroquinazolin-2-yl)oxy)propyl)piperidine-4-carbonitrile] |  | 819 |  | 140 | 2.9 |
| CC1CCCCN1C[C@H](C)Oc1nc(N2CC3CCC(C2)N3)c2cc(Cl)c(-c3ccc(F)c4sc(N)nc34)c(F)c2n1 (stereo partly drawn) [Example E27, 4-(4-(3,8-diazabicyclo[3.2.1]octan-3-yl)-6-chloro-8-fluoro-2-(((2S)-1-(2-methylpiperidin-1-yl)propan-2-yl)oxy)quinazolin-7-yl)-7-fluorobenzo[d]thiazol-2-amine] |  | 518 |  | 57 | 2.9 |
| CN1C[C@H](O)C[C@H]1COc1nc(N2CC3CCC(C2)N3)c2cc(Cl)c(-c3ccc(F)c4sc(N)nc34)c(F)c2n1 [Example E28, (3R,5S)-5-(((7-(2-amino-7-fluorobenzo[d]thiazol-4-yl)-4-(3,8-diazabicyclo[3.2.1]octan-3-yl)-6-chloro-8-fluoroquinazolin-2-yl)oxy)methyl)-1-methylpyrrolidin-3-ol] |  | 8860 |  | 30 | 3 |
| C[C@@H](CN1CCOCC1)Oc1nc(N2CC3CCC(C2)N3)c2cc(Cl)c(-c3ccc(F)c4sc(N)nc34)c(F)c2n1 [Example E29, 4-(4-(3,8-diazabicyclo[3.2.1]octan-3-yl)-6-chloro-8-fluoro-2-(((S)-1-morpholinopropan-2-yl)oxy)quinazolin-7-yl)-7-fluorobenzo[d]thiazol-2-amine] |  | 903 |  | 453 | 5.9 |
| C[C@@H](CN1CCC(F)CC1)Oc1nc(N2C3CCC2CNC3)c2cc(Cl)c(-c3ccc(F)c4sc(N)nc34)c(F)c2n1 [Example E30, 4-(4-(3,8-diazabicyclo[3.2.1]octan-8-yl)-6-chloro-8-fluoro-2-(((S)-1-(4-fluoropiperidin-1-yl)propan-2-yl)oxy)quinazolin-7-yl)-7-fluorobenzo[d]thiazol-2-amine] |  | 1810 |  | 173 | 12 |
| C[C@@H](CN1CC(F)C1)Oc1nc(N2CC3CCC(C2)N3)c2cc(Cl)c(-c3ccc(F)c4sc(N)nc34)c(F)c2n1 [Example E31, 4-(4-(3,8-diazabicyclo[3.2.1]octan-3-yl)-6-chloro-8-fluoro-2-(((S)-1-(3-fluoroazetidin-1-yl)propan-2-yl)oxy)quinazolin-7-yl)-7-fluorobenzo[d]thiazol-2-amine] |  | 1900 |  | 1080 | 11 |
| C[C@@H](CN1CC=CCC1)Oc1nc(N2CC3CCC(C2)N3)c2cc(Cl)c(-c3ccc(F)c4sc(N)nc34)c(F)c2n1 [Example E33, 4-(4-(3,8-diazabicyclo[3.2.1]octan-3-yl)-6-chloro-2-(((S)-1-(3,6-dihydropyridin-1(2H)-yl)propan-2-yl)oxy)-8-fluoroquinazolin-7-yl)-7-fluorobenzo[d]thiazol-2-amine] |  | 890 |  | 143 | 6.1 |
| C[C@@H](CN1CCN(C)CC1)Oc1nc(N2CC3CCC(C2)N3)c2cc(Cl)c(-c3ccc(F)c4sc(N)nc34)c(F)c2n1 [Example E34, 4-(4-(3,8-diazabicyclo[3.2.1]octan-3-yl)-6-chloro-8-fluoro-2-(((S)-1-(4-methylpiperazin-1-yl)propan-2-yl)oxy)quinazolin-7-yl)-7-fluorobenzo[d]thiazol-2-amine] |  | > 10000 |  | 1350 | 15 |
| Nc1nc2c(-c3c(Cl)cc4c(N5C6CCC5CNC6)nc(OC5CC6CCCCN6C5)nc4c3F)ccc(F)c2s1 (stereo not drawn) [Example E39, 4-(4-(3,8-diazabicyclo[3.2.1]octan-8-yl)-6-chloro-8-fluoro-2-((octahydroindolizin-2-yl)oxy)quinazolin-7-yl)-7-fluorobenzo[d]thiazol-2-amine] |  | > 10000 |  | 8160 | 54 |
| Nc1nc2c(-c3c(C(F)(F)F)cc4c(N5CC6CCC(C5)N6)nc(OC[C@@]56CCCN5C[C@H](F)C6)nc4c3F)ccc(F)c2s1 [Example E52, 4-(4-(3,8-diazabicyclo[3.2.1]octan-3-yl)-8-fluoro-2-(((2R,7aS)-2-fluorotetrahydro-1H-pyrrolizin-7a(5H)-yl)methoxy)-6-(trifluoromethyl)quinazolin-7-yl)-7-fluorobenzoI[d]thiazol-2-amine] | 0.36 | 48 | 3 |  |  |
| Nc1nc2c(-c3c(Cl)cc4c(N5CC6CCC(C5)N6)nc(OCC56CCCN5CC(F)C6)nc4c3F)ccc(F)c2s1 (stereo not drawn) [Example E54, 4-(4-(3,8-diazabicyclo[3.2.1]octan-3-yl)-6-chloro-8-fluoro-2-((2-fluorotetrahydro-1H-pyrrolizin-7a(5H)-yl)methoxy)quinazolin-7-yl)-7-fluorobenzo[d]thiazol-2-amine] | 0.35 | 205 | 7.5 |  |  |
| Nc1nc2c(-c3c(C(F)(F)F)cc4c(N5C6CNCC5COC6)nc(OC[C@@]56CCCN5C[C@H](F)C6)nc4c3F)ccc(F)c2s1 [Example E55, 4-(4-(3-oxa-7,9-diazabicyclo[3.3.1]nonan-9-yl)-8-fluoro-2-(((2R,7aS)-2-fluorotetrahydro-1H-pyrrolizin-7a(5H)-yl)methoxy)-6-(trifluoromethyl)quinazolin-7-yl)-7-fluorobenzo[d]thiazol-2-amine] | 0.25 | 59 | 2.7 |  |  |
| COCCNC1C[C@H]2CC[C@@H]1N2c1nc(OC[C@@]23CCCN2C[C@H](F)C3)nc2c(F)c(-c3ccc(F)c4sc(N)nc34)c(C(F)(F)F)cc12 (stereo partly drawn) [Example E58, 7-fluoro-4-(8-fluoro-2-(((2R,7aS)-2-fluorotetrahydro-1H-pyrrolizin-7a(5H)-yl)methoxy)-4-((1S,4R)-2-((2-methoxyethyl)amino)-7-azabicyclo[2.2.1]heptan-7-yl)-6-(trifluoromethyl)quinazolin-7-yl)benzo[d]thiazol-2-amine] | 0.5 | 190 | 7.6 |  |  |
